Where a chain is given by its changes, count along the chain named. Read-outs that look alike come from different tables or passages of the source.
Assays:
[1] = target: T1, KCNQ3* (KCNQ3[Ala315Thr]) (Homo sapiens, UniProt O43525, A315T); experiment: Two-electrode voltage clamp of homomeric KCNQ3* channels in Xenopus oocytes; format: cell-based
T1 sequence (O43525 1-872 A315T): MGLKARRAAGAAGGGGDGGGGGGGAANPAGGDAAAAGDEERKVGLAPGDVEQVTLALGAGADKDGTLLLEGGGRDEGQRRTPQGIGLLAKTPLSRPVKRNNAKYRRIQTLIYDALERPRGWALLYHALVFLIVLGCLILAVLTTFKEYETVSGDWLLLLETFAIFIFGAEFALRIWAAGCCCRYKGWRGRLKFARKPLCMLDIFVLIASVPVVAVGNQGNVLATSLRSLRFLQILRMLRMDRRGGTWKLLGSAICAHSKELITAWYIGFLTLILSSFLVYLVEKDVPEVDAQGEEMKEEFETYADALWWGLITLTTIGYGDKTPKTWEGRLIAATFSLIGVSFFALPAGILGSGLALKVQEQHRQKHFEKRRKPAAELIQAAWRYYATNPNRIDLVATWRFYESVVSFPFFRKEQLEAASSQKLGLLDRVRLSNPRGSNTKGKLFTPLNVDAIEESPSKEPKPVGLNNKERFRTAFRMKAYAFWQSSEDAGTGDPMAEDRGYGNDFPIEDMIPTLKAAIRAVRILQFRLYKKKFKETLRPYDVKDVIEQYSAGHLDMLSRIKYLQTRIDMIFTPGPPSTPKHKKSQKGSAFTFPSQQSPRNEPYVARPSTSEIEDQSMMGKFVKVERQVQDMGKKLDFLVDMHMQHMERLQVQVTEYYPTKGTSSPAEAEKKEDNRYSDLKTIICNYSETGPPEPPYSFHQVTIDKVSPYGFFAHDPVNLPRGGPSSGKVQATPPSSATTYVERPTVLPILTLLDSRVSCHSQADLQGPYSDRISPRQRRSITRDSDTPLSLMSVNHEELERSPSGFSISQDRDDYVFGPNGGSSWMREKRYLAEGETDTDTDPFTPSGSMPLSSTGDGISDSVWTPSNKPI
Description: (§1) KCNQ2 (human) and KCNQ3 (human) channel cDNAs were propagated and manipulated using the pTLN vector (gifts of Dr M. Taglialatela and Dr T. Jentsch). Introduction of point mutations was accomplished using PCR to combine two fragments each of which contained the mutation in an overlapping region of the sequence (‘two-step’ PCR method). To accomplish this, we used standard PCR approaches to amplify a 5′ fragment and a 3′ fragment (using a ‘flanking primer’ paired with a mutagenic primer). These fragments were then mixed along with the ‘flanking primer’ pair for a second round of PCR to combine the overlapping fragments. The resulting fragment was then subcloned into the appropriate parent vector using EcoRI and NotI restriction enzymes, and the sequence was verified by Sanger sequencing approaches (Genewiz). Sequences for the flanking primers and the ‘forward’ mutagenic primers are provided in Supplementary Table 1 for all mutations that were generated (‘reverse’ mutagenic primers are simply the reverse complement). In all experiments involving homomeric expression of KCNQ3 channels (including in vivo nonsense suppression experiments), the Ala315Thr mutation was introduced to enable efficient trafficking of homomeric KCNQ3. […] The plasmid encoding CivSP was kindly provided by Dr Y. Okamura. Complementary RNA was transcribed from the cDNA using the mMessage mMachine Kit (Ambion). Stage V–VI Xenopus laevis oocytes were prepared as previously described and were injected with cRNA alone or cRNA plus synthetic tRNA (for nonsense suppression, described below). Oocyte preparation was carried out using a protocol approved by the University of British Columbia Animal Care Committee, in accordance with the Canadian Council for Animal Care guidelines. We used female Xenopus laevis frogs 100 g or greater in size. After injection, oocytes were incubated for 12–48 h at 18 °C before recording.
Voltage-clamped potassium currents were recorded in standard Ringers solution (in mM): 116 NaCl, 2 KCl, 1 MgCl2, 0.5 CaCl2, 5 HEPES (pH 7.4) using an OC-725C voltage clamp (Warner, Hamden, CT). Glass microelectrodes were backfilled with 3 M KCl and had resistances of 0.1–1 MΩ. Data were filtered at 5 kHz and digitized at 10 kHz using a Digidata 1440A (Molecular Devices) controlled by the pClamp 10 software (Molecular Devices). Drugs were purchased from Toronto Research Chemicals (retigabine) or Tocris (ML-213, flupirtine, ICA-069673, ICA-110381), stored as 100 mM stocks in dimethylsulphoxide and diluted to working concentrations each experimental day.

[2] = system: KCNQ3*[Trp265TAG] rescued with F3-Trp; experiment: Two-electrode voltage clamp of F3-Trp-rescued KCNQ3*[Trp265TAG] channels (nonsense suppression); format: cell-based, human; conditions: for drug potency relative to Trp-rescued channels: F3-Trp substitution at Trp265
Description: as §1
Fluorinated Trp derivatives (5-F1-Trp; 7-F1-Trp; 5,7-F2-Trp (F2-Trp) and 5,6,7-F3-Trp (F3-Trp) were purchased from Asis Chem (Watertown, MA) and Sigma-Aldrich (St Louis, MO). The ‘Ind’ Trp variant was synthesized in-house as described previously. Incorporation of unnatural amino acids into ion channel proteins was carried out as described extensively in prior publications. Briefly, unnatural amino acids (aa) were protected with nitroveratryloxycarbonyl and were activated as the cyanomethyl ester, which were then coupled to the dinucleotide pdCpA (GE Healthcare/Dharmacon, Lafayette, CO). This aminoacyl dinucleotide was subsequently ligated to a modified (G73) Tetrahymena thermophile tRNA. […]
(§2) Voltage-clamped potassium currents were recorded in standard Ringers solution (in mM): 116 NaCl, 2 KCl, 1 MgCl2, 0.5 CaCl2, 5 HEPES (pH 7.4) using an OC-725C voltage clamp (Warner, Hamden, CT). […]

[3] = system: KCNQ3* mutants at Thr271, Leu272, Leu314 and Leu338; experiment: Two-electrode voltage clamp of KCNQ3* mutants at Thr271, Leu272, Leu314, Leu338; format: cell-based, human; conditions: functional mutants, up to 300 μM retigabine
Description: (§3) KCNQ2 (human) and KCNQ3 (human) channel cDNAs were propagated and manipulated using the pTLN vector (gifts of Dr M. Taglialatela and Dr T. Jentsch). Introduction of point mutations was accomplished using PCR to combine two fragments each of which contained the mutation in an overlapping region of the sequence (‘two-step’ PCR method). To accomplish this, we used standard PCR approaches to amplify a 5′ fragment and a 3′ fragment (using a ‘flanking primer’ paired with a mutagenic primer). These fragments were then mixed along with the ‘flanking primer’ pair for a second round of PCR to combine the overlapping fragments. The resulting fragment was then subcloned into the appropriate parent vector using EcoRI and NotI restriction enzymes, and the sequence was verified by Sanger sequencing approaches (Genewiz). Sequences for the flanking primers and the ‘forward’ mutagenic primers are provided in Supplementary Table 1 for all mutations that were generated (‘reverse’ mutagenic primers are simply the reverse complement). […]
as §2

[4] = target: T2, KCNQ3*[Trp265TAG] rescued with Trp (Homo sapiens, UniProt O43525, A315T); experiment: Two-electrode voltage clamp of Trp-rescued KCNQ3*[Trp265TAG] channels (nonsense suppression); format: cell-based; conditions: 1 μM retigabine
T2 construct: expressed in transfected cells; host or cells: Xenopus laevis oocytes co-injected with KCNQ3*[Trp265TAG] cRNA and Trp-acylated suppressor tRNA
T2 sequence (O43525 1-872 A315T): T1 sequence (O43525 1-872 A315T)
Description: as §3, §2

[5] = system: KCNQ1; conditions: KCNQ1 lacks the S5 Trp; cited from earlier work
[6] = system: KCNQ3*[Trp265Ind]; experiment: Two-electrode voltage clamp of Ind-rescued KCNQ3*[Trp265TAG] channels (nonsense suppression); format: cell-based, human; conditions: Ind at position 265; up to 100 μM retigabine
Description: as §3, §2

[7] = target: KCNQ2 (Homo sapiens, UniProt O43526); experiment: Two-electrode voltage clamp of homomeric KCNQ2 channels in Xenopus oocytes; format: cell-based; conditions: 100 μM retigabine (Fig. 1)
Description: as §3, §2

[8] = target: T3, KCNQ2/3 heteromers (Homo sapiens, UniProt O43525+O43526); experiment: Two-electrode voltage clamp of heteromeric KCNQ2/3 channels in Xenopus oocytes; format: cell-based; conditions: 1:1 injected mRNA
T3 construct: expressed in transfected cells; host or cells: Xenopus laevis oocytes co-injected with KCNQ2 and KCNQ3 mRNA (1:1)
Description: as §3, §2

[9] = target: T4, KCNQ3*[Asn220Cys] (Homo sapiens, UniProt O43525, A315T/N220C); experiment: Two-electrode voltage clamp of KCNQ3*[Asn220Cys] channels in Xenopus oocytes; format: cell-based; conditions: 1 μM retigabine, Asn220Cys mutant
T4 sequence (O43525 1-872 N220C/A315T): T1 sequence (O43525 1-872 A315T) with N220C
Description: as §3, §2

Chain of KCNQ2 (O43526 whole entry): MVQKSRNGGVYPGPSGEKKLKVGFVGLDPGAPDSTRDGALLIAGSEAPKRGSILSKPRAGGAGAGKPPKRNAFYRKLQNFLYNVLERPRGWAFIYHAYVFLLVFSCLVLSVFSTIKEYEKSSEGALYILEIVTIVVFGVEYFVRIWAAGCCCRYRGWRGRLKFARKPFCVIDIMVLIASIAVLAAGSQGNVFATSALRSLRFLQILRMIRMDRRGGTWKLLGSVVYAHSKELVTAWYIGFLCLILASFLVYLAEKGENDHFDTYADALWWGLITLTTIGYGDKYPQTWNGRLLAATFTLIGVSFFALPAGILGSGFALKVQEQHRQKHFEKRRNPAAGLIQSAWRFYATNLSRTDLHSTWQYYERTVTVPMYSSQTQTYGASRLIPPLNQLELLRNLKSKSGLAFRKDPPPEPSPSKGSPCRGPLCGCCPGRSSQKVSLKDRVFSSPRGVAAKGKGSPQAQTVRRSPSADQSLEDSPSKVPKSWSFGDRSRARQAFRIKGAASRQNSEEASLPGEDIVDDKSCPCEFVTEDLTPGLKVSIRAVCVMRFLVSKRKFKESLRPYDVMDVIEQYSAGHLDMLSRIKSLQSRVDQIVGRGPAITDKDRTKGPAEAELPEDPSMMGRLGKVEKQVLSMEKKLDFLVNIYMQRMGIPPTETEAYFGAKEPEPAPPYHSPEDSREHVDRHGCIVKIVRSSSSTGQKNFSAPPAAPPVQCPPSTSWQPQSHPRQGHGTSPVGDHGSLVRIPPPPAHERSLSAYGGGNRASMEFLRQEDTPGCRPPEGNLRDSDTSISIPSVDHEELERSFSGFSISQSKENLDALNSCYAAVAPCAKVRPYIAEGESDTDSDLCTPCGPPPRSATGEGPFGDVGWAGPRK
T3 sequence (O43526 whole entry): as above
T3 sequence (O43525 whole entry): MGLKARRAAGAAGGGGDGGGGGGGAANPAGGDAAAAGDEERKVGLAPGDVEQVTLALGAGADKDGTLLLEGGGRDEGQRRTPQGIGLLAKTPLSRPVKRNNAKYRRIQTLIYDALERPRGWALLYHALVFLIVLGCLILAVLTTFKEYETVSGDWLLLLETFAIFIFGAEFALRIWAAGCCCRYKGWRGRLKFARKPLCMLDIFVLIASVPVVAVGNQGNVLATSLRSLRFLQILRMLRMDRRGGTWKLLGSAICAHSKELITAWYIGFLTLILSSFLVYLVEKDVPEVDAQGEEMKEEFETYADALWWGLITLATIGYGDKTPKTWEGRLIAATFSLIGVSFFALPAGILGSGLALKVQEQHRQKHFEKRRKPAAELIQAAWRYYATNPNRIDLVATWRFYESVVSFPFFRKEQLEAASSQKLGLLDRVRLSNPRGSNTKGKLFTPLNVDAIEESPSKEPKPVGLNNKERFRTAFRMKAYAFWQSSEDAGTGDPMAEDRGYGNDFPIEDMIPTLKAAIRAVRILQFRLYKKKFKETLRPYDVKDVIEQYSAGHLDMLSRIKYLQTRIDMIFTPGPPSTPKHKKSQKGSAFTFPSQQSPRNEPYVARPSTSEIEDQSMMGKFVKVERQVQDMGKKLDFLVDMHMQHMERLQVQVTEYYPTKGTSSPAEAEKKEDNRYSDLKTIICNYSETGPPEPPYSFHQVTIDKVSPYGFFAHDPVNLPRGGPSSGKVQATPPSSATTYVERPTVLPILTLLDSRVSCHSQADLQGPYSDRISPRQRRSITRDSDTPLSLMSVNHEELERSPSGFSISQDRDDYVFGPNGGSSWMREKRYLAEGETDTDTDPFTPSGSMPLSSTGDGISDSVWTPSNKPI

SMILES: Cc1cc(C)c(NC(=O)C2CC3CCC2C3)c(C)c1 (stereo not shown) [ML-213]
- EC50 ([1]; KCNQ3* channels, n=5, ± s.e., read-out: EC50 for shift of activation V1/2): 3.6 ± 0.2 µM

SMILES: O=C(Nc1ccc(Cl)nc1)c1ccc(Cl)cc1 [ICA-110381]
- drug potency relative to Trp-rescued channels [2]: not as pronounced
- activation relative to Trp channels ([2]; F3-Trp-substituted channels): considerably more activation

SMILES: O=C(Nc1cnc(Cl)nc1)c1ccc(F)c(F)c1 [ICA-069673]
- drug potency relative to Trp-rescued channels [2]: not as pronounced

SMILES: CCOC(=O)Nc1ccc(NCc2ccc(F)cc2)cc1N [retigabine]
- shift in the voltage dependence of activation ([2]; 1 μM retigabine, F3-Trp at Trp265): much larger response
- retigabine-mediated gating shift [3]: retained a large retigabine-mediated gating shift
- EC50 [1]: 11.6 ± 0.4 µM
- increase in peak current ([1]; KCNQ3* channels, rarely greater than): ≤ 15%
- hyperpolarizing shift of the V1/2 of activation ([1]; homomeric KCNQ3*, Xenopus oocytes, 100 μM retigabine (Fig. 1)): 40–60 mV
- stabilization of channel opening, ΔG=Δ(zFV1/2) ([1]; saturating retigabine, calculated from shift of conductance–voltage relationship): ~6 kcal/mol
- shift in the voltage dependence of activation [4]: very little shift
- hyperpolarizing shift of V1/2 of activation [5]: absent
- activation of channels (gating shift, activation kinetics) [6]: entirely abolishes retigabine activation
- hyperpolarizing shift of the V1/2 of activation [7]: 40–60 mV
- retigabine-mediated gating shift [8]: ~−40 mV
- gating shift / sensitization to retigabine [9]: unable to generate a marked gating shift

From PMC4561856, “Atomic basis for therapeutic activation of neuronal potassium channels” (Nature Communications, 2015)
